In brackets after ≈: the same amount, converted by molar mass. Like-named read-outs stand apart in the source and are kept apart here.
Key:
[1] = molecular target: T1, PI5P4Kγ+ (Homo sapiens, UniProt Q8TBX8, D138G/D197E/E133P/E135D/E153T/E196G/G136S/G139A/N195G/S132L/S134N); test: ADP-Glo inhibition assay; assay type: biochemical; details: for IC50: ADP-Glo; for PI5P4Kγ+ LE: ligand efficiency from PI5P4Kγ+ pIC50
T1 construct: GST (N, cleaved yes); made in house; host or cells: E. coli BL21(DE3), pGEX6P
T1 sequence (Q8TBX8 with tags, fused parts or gaps INS131LPN/S132D/E133S/S134Q/E135A/G136R/D138G/G139A/E153T/N195G/E196G/D197E): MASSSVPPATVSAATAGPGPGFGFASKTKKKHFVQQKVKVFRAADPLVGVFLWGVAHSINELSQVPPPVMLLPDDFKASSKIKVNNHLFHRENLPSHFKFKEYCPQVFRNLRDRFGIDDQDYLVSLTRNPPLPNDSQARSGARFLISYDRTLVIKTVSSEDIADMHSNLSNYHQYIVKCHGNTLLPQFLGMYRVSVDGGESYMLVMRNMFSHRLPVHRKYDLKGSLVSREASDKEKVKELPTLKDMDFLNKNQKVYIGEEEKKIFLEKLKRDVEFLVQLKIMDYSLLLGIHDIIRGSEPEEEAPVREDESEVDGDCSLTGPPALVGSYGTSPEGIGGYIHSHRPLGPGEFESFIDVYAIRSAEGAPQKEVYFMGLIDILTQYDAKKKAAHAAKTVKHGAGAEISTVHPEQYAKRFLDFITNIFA
Procedure: Recombinant mutant PI5P4Kγ+ was prepared essentially as described previously.[25] […] Cultures were induced with 0.4 mM IPTG and probe sonicated in the presence of protease inhibitors. The GST fusion protein of PI5P4Kγ+ was harvested by binding to glutathione sepharose beads (Cytiva) and cleaved in situ with 50U of PreScission protease (Cytiva) for 4 h at 4 °C. The cleaved protein was further purified by size-exclusion chromatography (AKTA Pure, Cytiva). The protein purity was confirmed by sodium dodecyl sulphate–polyacrylamide gel electrophoresis, and the concentration was determined by colorimetric assay (Bio-Rad).
Statistical analysis was performed using nonparametric testing in Prism 8 (GraphPad). Activity pIC50 values and in vivo binding pEC50 values were estimated using a 4-parameter fit (Dotmatics).

[2] = Plasma protein binding; assay type: in vitro ADME; details: Mouse plasma protein binding; read-out: mPPB (converted)
Procedure: Plasma protein binding analysis was performed by Charles River Laboratories Inc. (ADME-SOP-90). Briefly, compounds in DMSO (10 µM, 0.5% DMSO final) were added to mouse plasma and dialysed against buffer for 4 hours at 37 °C. The compound concentration in each of the plasma and buffer compartments was determined by mass spectrometry and used to calculate the percentage compound bound. […]

[3] = Caco-2 cell permeability; assay type: in vitro ADME; details: human; for Papp A→B at 1 h, 10 µM: Caco-2, apical-to-basolateral; for efflux ratio at 1 h, 10 µM: Caco-2 efflux ratio (B-A/A-B), read-out: ER
Procedure: Permeability: bi-directional Caco-2 cell permeability was performed by Charles River Laboratories Inc. (ADME-SOP-49). Briefly, compounds were administered at 10 µM (1% DMSO final) to the apical or basolateral side of a polarised Caco-2 cell monolayer, then incubated at 37 °C for 60 minutes before appearance on the opposite side of the monolayer was determined by mass spectrometry. The efflux ratio (ER) is calculated from the ratio of B-A […]

[4] = Kinetic solubility; assay type: physicochemical; details: PBS buffer, PBS pH 7.4
Procedure: Kinetic solubility analysis was performed by Charles River Laboratories Inc. (ADME-SOP-01). Compound in
DMSO at 10 mM was diluted to 200 µM in both DMSO and buffer (0.1 M PBS, pH 7.4, 2% DMSO final), and
an aliquot of the 200 µM DMSO solution was diluted to 10 µM, and all dilutions were equilibrated for 2 hours. […]
Compound 9 was purchased from Am binter (Amb16536894) and was determined by UPLC to have purity >95%.
All other compounds were synthesised as described below , and all tested compounds have purity >95% by UPLC

[5] = molecular target: PINK (Tribolium castaneum, UniProt D6WMX4); test: biochemical; details: read-out: % activity remaining
[6] = molecular target: T2, PI5P4Kγ-WT (Homo sapiens, UniProt Q8TBX8); test: Thermal shift assay; details: read-out: ΔTm PI5P4Kγ WT, thermal shift, compound 63 μM
T2 sequence (Q8TBX8 1-421): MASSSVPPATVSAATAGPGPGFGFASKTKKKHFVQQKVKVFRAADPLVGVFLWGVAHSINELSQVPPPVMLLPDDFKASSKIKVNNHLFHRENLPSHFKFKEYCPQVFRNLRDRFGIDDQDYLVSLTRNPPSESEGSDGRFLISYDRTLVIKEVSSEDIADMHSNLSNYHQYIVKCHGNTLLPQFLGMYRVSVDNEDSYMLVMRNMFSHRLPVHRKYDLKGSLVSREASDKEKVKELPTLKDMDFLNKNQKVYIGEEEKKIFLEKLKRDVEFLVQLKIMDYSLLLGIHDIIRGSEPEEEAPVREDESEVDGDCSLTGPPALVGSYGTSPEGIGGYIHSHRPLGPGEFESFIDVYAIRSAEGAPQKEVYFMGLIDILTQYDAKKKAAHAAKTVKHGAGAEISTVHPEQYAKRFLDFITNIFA

[7] = molecular target: MKK6 (Homo sapiens, UniProt P52564); test: Kinase panel, radiometric 33P filter binding; details: read-out: % activity remaining
[8] = molecular target: RSK2 (Homo sapiens, UniProt P51812); test: Kinase panel, radiometric 33P filter binding; details: read-out: % activity remaining
Description: (§1) filter binding assay using 33P-g-ATPat the MRC PPU International Centre for Kinase Profiling, University of

[9] = molecular target: S6K1 (Homo sapiens, UniProt P23443); test: Kinase panel, radiometric 33P filter binding; details: read-out: % activity remaining
Description: as §1

[10] = molecular target: TLK1 (Homo sapiens, UniProt Q9UKI8); test: Kinase panel, radiometric 33P filter binding; details: read-out: % activity remaining
Description: as §1

[11] = molecular target: HIPK1 (Homo sapiens, UniProt Q86Z02); test: Kinase panel, radiometric 33P filter binding; details: read-out: % activity remaining
Description: as §1

[12] = molecular target: PAK2 (Homo sapiens, UniProt Q13177); test: Kinase panel, radiometric 33P filter binding
[13] = molecular target: MST4 (Homo sapiens, UniProt Q9P289); test: Kinase panel, radiometric 33P filter binding; details: read-out: % activity remaining
[14] = molecular target: IRAK1 (Homo sapiens, UniProt P51617); test: Kinase panel, radiometric 33P filter binding; details: read-out: % activity remaining
[15] = molecular target: IR (Homo sapiens, UniProt P06213); test: Kinase panel, radiometric 33P filter binding; details: read-out: % activity remaining
Chain of IR (P06213 28-1382): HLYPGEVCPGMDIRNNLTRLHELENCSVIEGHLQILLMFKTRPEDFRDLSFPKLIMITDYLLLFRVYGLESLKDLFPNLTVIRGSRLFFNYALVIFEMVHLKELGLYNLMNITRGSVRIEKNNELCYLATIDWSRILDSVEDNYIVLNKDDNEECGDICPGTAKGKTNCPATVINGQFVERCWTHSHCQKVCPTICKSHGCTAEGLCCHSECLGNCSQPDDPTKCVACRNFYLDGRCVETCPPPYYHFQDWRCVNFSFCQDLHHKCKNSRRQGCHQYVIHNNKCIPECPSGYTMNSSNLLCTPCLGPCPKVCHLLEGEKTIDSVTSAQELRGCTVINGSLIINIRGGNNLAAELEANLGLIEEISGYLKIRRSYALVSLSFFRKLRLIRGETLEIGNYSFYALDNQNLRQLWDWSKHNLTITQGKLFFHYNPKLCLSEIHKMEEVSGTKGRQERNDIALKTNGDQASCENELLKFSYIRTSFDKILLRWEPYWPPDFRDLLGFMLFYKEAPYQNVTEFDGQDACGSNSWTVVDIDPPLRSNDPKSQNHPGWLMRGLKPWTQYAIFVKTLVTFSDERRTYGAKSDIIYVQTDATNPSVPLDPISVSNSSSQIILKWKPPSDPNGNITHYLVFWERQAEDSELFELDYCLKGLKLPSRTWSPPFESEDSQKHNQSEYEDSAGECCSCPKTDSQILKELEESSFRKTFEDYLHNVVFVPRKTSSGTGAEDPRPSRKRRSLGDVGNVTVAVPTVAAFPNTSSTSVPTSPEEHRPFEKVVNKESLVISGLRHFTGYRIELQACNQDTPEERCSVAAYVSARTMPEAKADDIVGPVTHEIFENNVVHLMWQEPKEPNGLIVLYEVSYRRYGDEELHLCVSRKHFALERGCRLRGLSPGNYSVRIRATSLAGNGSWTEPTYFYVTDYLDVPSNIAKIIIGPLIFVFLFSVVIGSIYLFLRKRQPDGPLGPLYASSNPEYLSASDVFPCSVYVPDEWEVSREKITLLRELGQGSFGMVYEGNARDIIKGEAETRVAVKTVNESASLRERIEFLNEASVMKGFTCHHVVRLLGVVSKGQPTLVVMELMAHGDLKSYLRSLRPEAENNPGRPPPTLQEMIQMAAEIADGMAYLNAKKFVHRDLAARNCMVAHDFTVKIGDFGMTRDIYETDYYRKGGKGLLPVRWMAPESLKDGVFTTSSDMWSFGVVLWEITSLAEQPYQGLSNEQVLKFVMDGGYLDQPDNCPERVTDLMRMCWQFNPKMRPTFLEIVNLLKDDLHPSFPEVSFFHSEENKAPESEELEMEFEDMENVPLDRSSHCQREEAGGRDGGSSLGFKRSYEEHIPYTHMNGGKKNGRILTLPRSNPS
Description: as §1

Chain of PAK2 (Q13177 whole entry): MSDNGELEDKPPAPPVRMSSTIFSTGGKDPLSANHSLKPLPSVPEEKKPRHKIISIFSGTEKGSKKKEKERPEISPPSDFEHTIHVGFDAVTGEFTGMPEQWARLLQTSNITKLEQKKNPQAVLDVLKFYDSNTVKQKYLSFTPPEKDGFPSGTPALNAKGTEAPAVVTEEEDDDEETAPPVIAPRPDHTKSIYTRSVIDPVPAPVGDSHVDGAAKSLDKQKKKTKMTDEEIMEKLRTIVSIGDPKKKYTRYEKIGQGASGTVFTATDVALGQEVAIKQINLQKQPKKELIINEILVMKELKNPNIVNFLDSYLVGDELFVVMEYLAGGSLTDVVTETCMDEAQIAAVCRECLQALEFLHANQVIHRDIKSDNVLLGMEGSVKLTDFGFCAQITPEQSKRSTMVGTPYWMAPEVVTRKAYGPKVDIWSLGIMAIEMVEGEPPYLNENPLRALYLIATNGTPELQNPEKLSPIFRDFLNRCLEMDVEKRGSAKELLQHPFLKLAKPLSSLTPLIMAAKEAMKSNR
Chain of S6K1 (P23443 whole entry): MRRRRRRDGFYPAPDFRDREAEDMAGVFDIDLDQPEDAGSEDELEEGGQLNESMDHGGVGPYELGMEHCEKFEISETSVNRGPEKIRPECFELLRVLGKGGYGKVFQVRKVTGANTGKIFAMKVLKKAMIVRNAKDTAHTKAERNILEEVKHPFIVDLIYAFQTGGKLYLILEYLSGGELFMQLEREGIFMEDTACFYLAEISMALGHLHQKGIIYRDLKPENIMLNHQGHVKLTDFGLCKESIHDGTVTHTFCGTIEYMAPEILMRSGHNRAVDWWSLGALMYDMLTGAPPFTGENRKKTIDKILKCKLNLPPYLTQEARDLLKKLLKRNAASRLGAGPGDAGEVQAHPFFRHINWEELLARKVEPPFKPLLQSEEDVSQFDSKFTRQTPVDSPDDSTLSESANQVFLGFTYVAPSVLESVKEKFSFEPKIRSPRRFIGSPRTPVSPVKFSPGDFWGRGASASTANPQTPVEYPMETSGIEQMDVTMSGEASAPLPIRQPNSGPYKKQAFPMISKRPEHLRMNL
Chain of IRAK1 (P51617 whole entry): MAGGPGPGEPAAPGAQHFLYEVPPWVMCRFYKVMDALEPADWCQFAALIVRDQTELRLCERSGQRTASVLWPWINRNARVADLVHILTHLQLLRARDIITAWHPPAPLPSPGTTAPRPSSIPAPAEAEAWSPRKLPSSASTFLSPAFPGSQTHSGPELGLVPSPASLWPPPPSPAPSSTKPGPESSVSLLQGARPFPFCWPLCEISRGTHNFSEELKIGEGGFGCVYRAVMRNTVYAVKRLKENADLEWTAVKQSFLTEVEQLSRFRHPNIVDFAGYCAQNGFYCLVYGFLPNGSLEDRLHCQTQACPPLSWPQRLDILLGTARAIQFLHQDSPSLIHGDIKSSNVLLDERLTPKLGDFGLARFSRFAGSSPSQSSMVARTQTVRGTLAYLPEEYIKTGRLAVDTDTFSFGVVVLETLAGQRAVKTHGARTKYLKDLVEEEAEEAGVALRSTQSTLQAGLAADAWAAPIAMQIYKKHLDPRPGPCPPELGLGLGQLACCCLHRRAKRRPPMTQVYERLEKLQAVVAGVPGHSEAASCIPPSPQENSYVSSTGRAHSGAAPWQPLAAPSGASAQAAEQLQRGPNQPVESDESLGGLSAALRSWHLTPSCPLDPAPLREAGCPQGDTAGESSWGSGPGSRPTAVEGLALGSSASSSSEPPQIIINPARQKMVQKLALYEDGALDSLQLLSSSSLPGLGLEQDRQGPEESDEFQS
Chain of MKK6 (P52564 whole entry): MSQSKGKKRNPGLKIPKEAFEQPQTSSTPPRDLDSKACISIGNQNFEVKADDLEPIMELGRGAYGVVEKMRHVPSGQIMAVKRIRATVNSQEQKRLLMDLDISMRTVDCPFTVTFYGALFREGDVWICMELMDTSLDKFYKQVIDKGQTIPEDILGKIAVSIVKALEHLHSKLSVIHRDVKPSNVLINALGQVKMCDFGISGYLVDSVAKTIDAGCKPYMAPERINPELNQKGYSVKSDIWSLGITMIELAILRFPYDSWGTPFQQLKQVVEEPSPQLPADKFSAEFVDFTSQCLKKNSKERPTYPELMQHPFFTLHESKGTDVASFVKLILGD
Chain of HIPK1 (Q86Z02 whole entry): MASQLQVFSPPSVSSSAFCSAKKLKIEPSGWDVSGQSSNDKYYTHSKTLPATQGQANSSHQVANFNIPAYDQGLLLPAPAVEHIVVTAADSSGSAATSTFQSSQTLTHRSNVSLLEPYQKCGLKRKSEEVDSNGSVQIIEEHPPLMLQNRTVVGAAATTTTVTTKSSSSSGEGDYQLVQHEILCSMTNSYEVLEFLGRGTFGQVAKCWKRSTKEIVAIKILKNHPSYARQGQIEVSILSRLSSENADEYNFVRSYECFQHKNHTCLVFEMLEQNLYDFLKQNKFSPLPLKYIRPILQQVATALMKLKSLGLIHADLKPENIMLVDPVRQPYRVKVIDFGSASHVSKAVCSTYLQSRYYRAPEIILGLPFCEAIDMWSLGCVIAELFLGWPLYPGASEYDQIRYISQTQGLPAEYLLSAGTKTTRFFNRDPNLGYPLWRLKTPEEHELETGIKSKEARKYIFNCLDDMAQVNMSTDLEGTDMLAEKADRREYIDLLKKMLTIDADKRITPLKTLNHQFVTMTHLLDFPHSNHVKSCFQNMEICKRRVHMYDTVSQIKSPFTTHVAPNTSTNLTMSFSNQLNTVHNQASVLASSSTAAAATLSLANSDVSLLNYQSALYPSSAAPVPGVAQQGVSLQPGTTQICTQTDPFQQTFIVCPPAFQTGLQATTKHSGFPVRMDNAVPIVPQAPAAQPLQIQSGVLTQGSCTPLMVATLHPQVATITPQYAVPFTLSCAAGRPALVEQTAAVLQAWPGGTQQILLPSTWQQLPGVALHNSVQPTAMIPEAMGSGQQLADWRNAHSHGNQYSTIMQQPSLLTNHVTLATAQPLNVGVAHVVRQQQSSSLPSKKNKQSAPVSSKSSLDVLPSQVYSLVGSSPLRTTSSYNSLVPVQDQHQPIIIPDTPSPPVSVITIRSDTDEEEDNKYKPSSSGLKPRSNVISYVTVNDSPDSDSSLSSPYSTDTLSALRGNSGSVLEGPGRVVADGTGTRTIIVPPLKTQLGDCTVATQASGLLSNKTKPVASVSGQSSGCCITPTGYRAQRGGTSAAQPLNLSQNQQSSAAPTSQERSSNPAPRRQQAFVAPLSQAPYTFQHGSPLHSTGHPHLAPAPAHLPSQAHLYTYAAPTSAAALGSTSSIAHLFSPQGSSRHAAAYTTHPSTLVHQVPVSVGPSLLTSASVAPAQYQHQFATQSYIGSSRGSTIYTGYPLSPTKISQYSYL
Chain of MST4 (Q9P289 whole entry): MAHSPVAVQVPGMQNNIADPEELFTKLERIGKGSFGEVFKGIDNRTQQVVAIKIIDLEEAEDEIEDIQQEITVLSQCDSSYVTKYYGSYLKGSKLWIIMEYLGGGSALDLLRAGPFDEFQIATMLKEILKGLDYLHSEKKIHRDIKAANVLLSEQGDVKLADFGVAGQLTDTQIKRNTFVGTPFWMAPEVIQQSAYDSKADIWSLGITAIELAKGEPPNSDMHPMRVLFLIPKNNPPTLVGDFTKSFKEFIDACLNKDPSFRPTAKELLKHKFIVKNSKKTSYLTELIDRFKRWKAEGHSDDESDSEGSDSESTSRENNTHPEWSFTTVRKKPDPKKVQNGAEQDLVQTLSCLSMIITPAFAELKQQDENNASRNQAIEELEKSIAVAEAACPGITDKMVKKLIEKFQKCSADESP

**Q.** Which IC50 ([1]; mutant PI5P4Kγ+ construct, read-out: PI5P4Kγ+ pIC50 (converted)) does the source give for `CC(C)c1ccccc1-c1nc(NCc2ccccn2)c2c(ccn2C)n1` [Compound 40] here?
**A.** 631 nM

**Q.** What about the “PI5P4Kγ+ LE” value [1] of the same compound?
**A.** 0.32

**Q.** And the fraction unbound at 4 h, 10 µM [2]?
**A.** 0.01

**Q.** What about the Papp A→B at 1 h, 10 µM [3] of the same compound?
**A.** 122 ×10⁻⁶ cm/s

**Q.** What about the efflux ratio at 1 h, 10 µM [3] of the same compound?
**A.** 0.4

**Q.** And the solubility at 2 h [4]?
**A.** 7 µM (≈ 2.5 µg/mL)

**Q.** What about the remaining activity at 10 µM [5] of the same compound?
**A.** 125%

**Q.** And the ΔTm at 63 µM [6]?
**A.** 6.9 °C

**Q.** What about the remaining activity at 10 µM [7] of the same compound?
**A.** 90%

**Q.** What about the remaining activity at 10 µM [8] of the same compound?
**A.** 106%

**Q.** And the remaining activity at 10 µM [9]?
**A.** 95%

**Q.** What about the remaining activity at 10 µM [10] of the same compound?
**A.** 115%

**Q.** What about the remaining activity at 10 µM [11] of the same compound?
**A.** 104%

**Q.** And the “% activity remaining” value ([12]; PAK2, 10 μM, 10 µM)?
**A.** < 50%

**Q.** What about the remaining activity at 10 µM ([12]; read-out: % activity remaining, PAK2, 10 μM) of the same compound?
**A.** 45%

**Q.** What about the remaining activity at 10 µM [13] of the same compound?
**A.** 110%

**Q.** And the remaining activity at 10 µM [14]?
**A.** 114%

**Q.** What about the remaining activity at 10 µM [15] of the same compound?
**A.** 119%

**Q.** For `FC(F)(F)c1ccccc1-c1nc(NCc2cccs2)c2ccccc2n1` [Compound 1, NIH-12848, reference compound], which IC50 ([1]; new data, read-out: PI5P4Kγ+ IC50) is on record?
**A.** 790 nM

**Q.** And the “PI5P4Kγ+ LE” value [1]?
**A.** 0.32

**Q.** And the fraction unbound at 4 h, 10 µM [2]?
**A.** < 0.01

**Q.** And the Papp A→B at 1 h, 10 µM [3]?
**A.** 6.4 ×10⁻⁶ cm/s

**Q.** And the efflux ratio at 1 h, 10 µM [3]?
**A.** 0.9

**Q.** And the solubility at 2 h [4]?
**A.** < 5 µM

**Q.** What about the ΔTm at 63 µM [6] of the same compound?
**A.** 4.7 °C
